Data taken from publication PMC9487510, “A Novel Oral GyrB/ParE Dual Binding Inhibitor Effective against Multidrug-Resistant Neisseria gonorrhoeae and Other High-Threat Pathogens” (Antimicrobial Agents and Chemotherapy, 2022).
≈ marks a conversion by molar mass, not a printed value. Where two headings read alike, the source gives them in different places.

Tested on: N. gonorrhoeae clinical isolates
Assay: MIC, agar dilution (CLSI)
Assay type: cell-based, Neisseria gonorrhoeae
Conditions: for MIC: Neisseria gonorrhoeae, read-out: MIC

CNc1cc(F)cc2c1[nH]c1nc(Oc3cnc(C)nc3)nc(N3CCC4(CC3)CO[C@@H](CO)C4)c12 [JSF-2414]
MIC range (96 clinical isolates): 0.5 to 30 ng/mL
MIC (ATCC700825, antibiotic-susceptible strain ATCC 700825): 3.9 ng/mL (≈ 7.9 nM)
MIC (multidrug-resistant strain H041): 7.8 ng/mL (≈ 15.8 nM)
MIC (strain CDC1 (GCREF2012 016)): 3.9 ng/mL (≈ 7.9 nM)
MIC (strain CDC2 (GCREF2012 045)): 3.9 ng/mL (≈ 7.9 nM)
MIC (strain CDC3 (GCREF2013 013)): 3.9 ng/mL (≈ 7.9 nM)
MIC (strain CDC4 (GCREF2013 030)): 3.9 ng/mL (≈ 7.9 nM)
MIC (strain CDC5 (GCREF2012 001)): 3.9 ng/mL (≈ 7.9 nM)
MIC (strain CDC6 (GCREF2012 002)): 7.8 ng/mL (≈ 15.8 nM)
MIC (strain CDC8 (GCREF2012 004)): 2 ng/mL (≈ 4.05 nM)
MIC (strain CDC9 (GCREF2012 005)): 3.9 ng/mL (≈ 7.9 nM)
MIC (strain CDC10 (GCREF2012 006)): 3.9 ng/mL (≈ 7.9 nM)
MIC (strain CDC11 (GCREF2012 007)): 3.9 ng/mL (≈ 7.9 nM)
MIC (strain CDC12 (GCREF2012 008)): 3.9 ng/mL (≈ 7.9 nM)
MIC (strain CDC13 (GCREF2012 009)): 3.9 ng/mL (≈ 7.9 nM)
MIC (strain CDC14 (GCREF2012 010)): 3.9 ng/mL (≈ 7.9 nM)
MIC (strain CDC15 (GCREF2012 011)): 7.8 ng/mL (≈ 15.8 nM)
MIC (strain CDC16 (GCREF2012 012)): 7.8 ng/mL (≈ 15.8 nM)
MIC (strain CDC18 (GCREF2012 014)): 7.8 ng/mL (≈ 15.8 nM)
MIC (strain CDC19 (GCREF2012 015)): 3.9 ng/mL (≈ 7.9 nM)
MIC (strain CDC20 (GCREF2012 017)): 16 ng/mL (≈ 32.4 nM)
MIC (strain CDC21 (GCREF2012 018)): 3.9 ng/mL (≈ 7.9 nM)
MIC (strain CDC22 (GCREF2012 019)): 30 ng/mL (≈ 60.8 nM)
MIC (strain CDC23 (GCREF2012 020)): 7.8 ng/mL (≈ 15.8 nM)
MIC (strain CDC24 (GCREF2012 021)): 3.9 ng/mL (≈ 7.9 nM)
MIC (strain CDC25 (GCREF2012 022)): 3.9 ng/mL (≈ 7.9 nM)
MIC (strain CDC26 (GCREF2012 023)): 7.8 ng/mL (≈ 15.8 nM)
MIC (strain CDC27 (GCREF2012 024)): 3.9 ng/mL (≈ 7.9 nM)
MIC (strain CDC28 (GCREF2012 025)): 3.9 ng/mL (≈ 7.9 nM)
MIC (strain CDC29 (GCREF2012 026)): 7.8 ng/mL (≈ 15.8 nM)
MIC (strain CDC30 (GCREF2012 027)): 7.8 ng/mL (≈ 15.8 nM)
MIC (strain CDC31 (GCREF2012 028)): 7.8 ng/mL (≈ 15.8 nM)
MIC (strain CDC32 (GCREF2012 029)): 7.8 ng/mL (≈ 15.8 nM)
MIC (strain CDC33 (GCREF2012 030)): 7.8 ng/mL (≈ 15.8 nM)
MIC (strain CDC34 (GCREF2012 031)): 3.9 ng/mL (≈ 7.9 nM)
MIC (strain CDC35 (GCREF2012 032)): 3.9 ng/mL (≈ 7.9 nM)
MIC (strain CDC36 (GCREF2012 033)): 2 ng/mL (≈ 4.05 nM)
MIC (strain CDC37 (GCREF2012 034)): 3.9 ng/mL (≈ 7.9 nM)
MIC (strain CDC38 (GCREF2012 035)): 3.9 ng/mL (≈ 7.9 nM)
MIC (strain CDC39 (GCREF2012 036)): 3.9 ng/mL (≈ 7.9 nM)
MIC (strain CDC40 (GCREF2012 037)): 3.9 ng/mL (≈ 7.9 nM)
MIC (strain CDC41 (GCREF2012 038)): 3.9 ng/mL (≈ 7.9 nM)
MIC (strain CDC42 (GCREF2012 039)): 3.9 ng/mL (≈ 7.9 nM)
MIC (strain CDC43 (GCREF2012 040)): 3.9 ng/mL (≈ 7.9 nM)
MIC (strain CDC45 (GCREF2012 042)): 7.8 ng/mL (≈ 15.8 nM)
MIC (strain CDC46 (GCREF2012 043)): 3.9 ng/mL (≈ 7.9 nM)
MIC (strain CDC47 (GCREF2012 044)): 3.9 ng/mL (≈ 7.9 nM)
MIC (strain CDC48 (GCREF2012 046)): 3.9 ng/mL (≈ 7.9 nM)
MIC (strain CDC49 (GCREF2012 047)): 3.9 ng/mL (≈ 7.9 nM)
MIC (strain CDC50 (GCREF2012 048)): 7.8 ng/mL (≈ 15.8 nM)
MIC (strain CDC51 (GCREF2012 049)): 3.9 ng/mL (≈ 7.9 nM)
MIC (strain CDC52 (GCREF2012 050)): 3.9 ng/mL (≈ 7.9 nM)
MIC (strain CDC53 (GCREF2012 051)): 7.8 ng/mL (≈ 15.8 nM)
MIC (strain CDC54 (GCREF2012 052)): 3.9 ng/mL (≈ 7.9 nM)
MIC (strain CDC55 (GCREF2013 001)): 7.8 ng/mL (≈ 15.8 nM)
MIC (strain CDC56 (GCREF2013 002)): 3.9 ng/mL (≈ 7.9 nM)
MIC (strain CDC57 (GCREF2013 003)): 3.9 ng/mL (≈ 7.9 nM)
MIC (strain CDC58 (GCREF2013 004)): 2 ng/mL (≈ 4.05 nM)
MIC (strain CDC59 (GCREF2013 044)): 2 ng/mL (≈ 4.05 nM)
